For assay [1], the system named is primary cultured neural stem cells (NSC). As to the kind of experiment: Survival and proliferation of primary cultured neural stem cells (neurospheres) in medium without growth factors. It is filed as cell-based, SD rats. As for the experimental part: The brains were taken from neonatal 1 day SD rats under a sterile condition, and the hippocampi were isolated and placed in culture dish containing a small amount of high glucose DMEM/F12; the meninges and blood vessels were divested, and the tissue was cut into small pieces, added with 5 ml cell culture medium, lightly blown and beaten into cell suspension with flame polished Pasteur sucker, and filtered by 400 screen mesh. The ratio of living cells was counted by trypan-blue staining. After the counting, the cells were placed into a 25 ml culture flask at a density of 2×10^6 cells/ml. Basal culture medium DMEM/F12 (1:1), cofactor B27(2%) and growth factor EGF (20 ng/ml)+bFGF (10 ng)/ml) were needed for conventional culture of NSC, and the cells grew as floating spheres in the culture medium. In order to observe the effect of different concentrations of epimedium flavanoide and its effective ingredient […] on primary cultured NSC, basal culture medium DMEM/F12 (1:1) and B27(2%) were used without growth factor, and epimedium flavanoide or […] final concentration of 10, 50, 100, 200, 400 μg/ml was added respectively. Cultures were maintained at 37° C. in a humidified atmosphere of 95% air/5% CO2. The growth state of the cells was observed under inverted microscope, and the diameter of the neurospheres was measured by micro ruler. The identification of neural stem cells: the neurospheres were taken, the culture medium containing growth factor EGF and bFGF were removed, DMEM/F12 containing 10% FBS was added, and inoculated in 24-well culture plates covered with polylysine. After 16 hours of culture, nestin and doublecortin (DCX) immunocytochemical staining was performed.

Assay [2] relates to neural stem cells. Briefly: Differentiation of neural stem cells (second generation neurospheres) in medium without FBS. It is filed as cell-based, SD rats. As for the experimental part:
The second generation of neurospheres in culture was taken, and the culture medium containing growth factors in the culture flask was removed. The neurospheres were randomly divided into two groups: (1) fetal bovine serum (FBS) control group: the culture medium was DMEM/F12+1% FBS; (2) epimedium flavanoide treatment group: the culture medium was DMEM/F12 (without FBS) added with epimedium flavanoide at a final concentration of 10, 50, 100, 200 and 400 μg/ml, respectively; (3) […] treatment group: the culture medium was DMEM/F12 (without FBS) added with […] final concentration of 10, 50, 100, 200 and 400 μg/ml, respectively. The three groups of the cells were inoculated in 24-well culture plates covered with polylysine. After 7 days of culture, the morphology of the cells was observed under inverted microscope, and fluorescent immunostaining was performed and photographed.

[3] abbreviates: without fetal bovine serum, 7 days, vs FBS group, P<0.01 (FIG. 4).
Setting [4] is: without fetal bovine serum, 7 days, vs FBS group, P<0.01 (FIG. 5).

For the compound `COc1ccc(-c2oc3c(CC=C(C)C)c(OC4OC(CO)C(O)C(O)C4O)cc(O)c3c(=O)c2OC2OC(C)C(O)C(O)C2O)cc1` (centres unmarked) [icarrin, 3-((6-deoxymannopyranosyl)oxo)-7-(pyranoglucosyloxo)-5-hydroxy-2-(4-methoxyphenyl)-8-(3-methyl-2-butenyl)-4H-1-benzopyran-4-one], in assay [1] (100 μg/ml, DMEM/F12 without growth factors, 7 days (FIG. 1D)), the “growth state of neurospheres” value is given as “floating neurospheres were observed”. The “growth state and volume of neurospheres” value in assay [1] (100 μg/ml, DMEM/F12 without growth factors, 28 days (FIG. 1E)) was “the neurospheres still grew well, and their volume further increased”. In addition, the “formation of floating neurospheres” value in assay [1] (10-400 μg/ml, DMEM/F12 without growth factors, 7 days) is “many floating neurospheres were formed”. For the same compound, in assay [1] (100-200 μg/ml groups, without growth factors, 28 days), the “growth and volume of neurospheres” value is given as “still grew well, but also became significantly larger in volume”. The diameter of neurospheres result in assay [1] (without serum and growth factors, vs control group at 7, 14, 28 days, P<0.01 (FIG. 2)) is “increased gradually as the incubation time prolonged”. Further, in assay [2] (50 μg/ml, DMEM/F12 without FBS, 7 days (FIG. 3D)), the “morphology of differentiated cells” value is “the neurospheres grew well and almost completely adhered, and differentiated well”. In addition, in assay [2] (50, 100 μg/ml, without FBS, 7 days), the “growth, adhesion and differentiation of neurospheres” value was “the neurospheres grew well, almost completely adhered, and differentiated well”. Moreover, in assay [2] (setting [3]), the “distance of cell migration” value is listed as “farther” and the “length of processes of differentiated cells grown from the neurospheres” value is given as “longer”. Moreover, in assay [2] (setting [4]), the “length of the axons of neurons” value is “longer” and the “number of NF-200 positive cells (mature neurons)” value was “increased”.

Source of the values: patent US20100317605A1, “THE USE OF EPIMEDIUM FLAVONES AND EFFECTIVE COMPONENTS THEREOF FOR THE PREPARATION OF MEDICAMENTS OF PROMOTING PROLIFERATIONS AND DIFFERENTIATIONS OF NERVE CELLS” (XUANWU HOSPITAL OF CAPITAL MEDICAL UNIVERSITY, priority 2007, published 2010).
